Test results reported in patent US20060069132A1, “Azolecarboxamide herbicides” (priority 2004, published 2006).

Legend:
morningglory [1] = assay: Test A pre-/postemergence herbicide test; type: in vivo, Ipomoea spp.
Summary of the method: (§1)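 Visual injury scores on a 0–100 scale (100 = complete control) taken about ten days post-treatment in greenhouse against untreated controls; dash means no result. Treatments: preemergence soil spray and postemergence spray to runoff on one- to two-leaf plants 2 to 10 cm tall, surfactant-containing formulation.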

Surinam grass = assay: Test B pre-/postemergence herbicide test; type: in vivo, Urochloa decumbens; conditions: for Surinam Grass plant response rating: postemergence, visual rating, scale 0 (no effect) to 100 (complete control)
Summary of the method: (§2)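 Visual rating, 0 (no effect) to 100 (complete control), versus untreated controls after 13–15 d in greenhouse. Pre- and postemergence applications (postemergence plants 2–18 cm, 1–4 leaves); flooded paddy arm at 2-leaf stage. Compounds in non-phytotoxic solvent plus surfactant.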

redroot pigweed = assay: Test A pre-/postemergence herbicide test; type: in vivo, Amaranthus retroflexus
Summary of the method: as §1

cocklebur = assay: Test B pre-/postemergence herbicide test; type: in vivo, Xanthium strumarium; conditions: for Cocklebur plant response rating: postemergence, visual rating, scale 0 (no effect) to 100 (complete control)
Summary of the method: (§3)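 Flooded paddy rice and barnyardgrass were treated at the 2-leaf stage; upland plantings received compound either on sown seed or on 1- to 4-leaf seedlings. All were kept 13–15 days in a greenhouse and scored visually, 0–100, relative to untreated plants.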

wild oat = assay: Test B postemergence herbicide test; type: in vivo, Avena fatua; conditions: postemergence, visual rating, scale 0 (no effect) to 100 (complete control)
Summary of the method: (§4)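 After treating 2-leaf paddy plants or 2–18 cm postemergence plants (1 to 4 leaves) with formulated chemical, researchers kept them in a greenhouse for 13–15 days. Effects were judged visually versus controls: 0 indicates none, 100 total control.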

barnyardgrass [2] = assay: Test A pre-/postemergence herbicide test; type: in vivo, Echinochloa crus-galli
Summary of the method: as §1

barnyardgrass [3] = assay: Test B pre-/postemergence herbicide test; type: in vivo, Echinochloa crus-galli; conditions: for Barnyardgrass plant response rating: postemergence, visual rating, scale 0 (no effect) to 100 (complete control)
Summary of the method: as §3

corn = assay: Test B pre-/postemergence herbicide test; type: in vivo, Zea mays; conditions: for Corn plant response rating: postemergence, visual rating, scale 0 (no effect) to 100 (complete control)
Summary of the method: as §2

velvetleaf [4] = assay: Test B pre-/postemergence herbicide test; type: in vivo, Abutilon theophrasti; conditions: for Velvetleaf plant response rating: postemergence, visual rating, scale 0 (no effect) to 100 (complete control)
Summary of the method: as §2

ducksalad = assay: Test B flooded paddy test; type: in vivo, Heteranthera limosa; conditions: 1000 g ai/ha, visual rating, scale 0 to 100 (0 no effect, 100 complete control), 13 to 15 days
Summary of the method: as §4

giant foxtail [5] = assay: Test B pre-/postemergence herbicide test; type: in vivo, Setaria faberi; conditions: for Foxtail, Giant plant response rating: postemergence, visual rating, scale 0 (no effect) to 100 (complete control)
Summary of the method: as §2

pigweed = assay: Test B pre-/postemergence herbicide test; type: in vivo, Amaranthus retroflexus; conditions: for Pigweed plant response rating: postemergence, visual rating, scale 0 (no effect) to 100 (complete control)
Summary of the method: as §2

rice [6] = assay: Test B flooded paddy test; type: in vivo, Oryza sativa; conditions: 1000 g ai/ha, visual rating, scale 0 to 100 (0 no effect, 100 complete control), 13 to 15 days
Summary of the method: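 Read-out: visual comparison with controls, scored 0 to 100, where 100 means complete control and 0 no effect. Formulated chemicals were applied postemergence to plants 2–18 cm tall (1- to 4-leaf), or to flooded-paddy plants at the 2-leaf stage, then held 13 to 15 days under glass.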

large crabgrass [7] = assay: Test B pre-/postemergence herbicide test; type: in vivo, Digitaria sanguinalis; conditions: for Crabgrass, Large plant response rating: postemergence, visual rating, scale 0 (no effect) to 100 (complete control)
Summary of the method: as §2

large crabgrass [8] = assay: Test A pre-/postemergence herbicide test; type: in vivo, Digitaria sanguinalis
Summary of the method: as §1

barnyardgrass [9] = assay: Test B flooded paddy test; type: in vivo, Echinochloa crus-galli; conditions: 1000 g ai/ha, visual rating, scale 0 to 100 (0 no effect, 100 complete control), 13 to 15 days
Summary of the method: as §4

giant foxtail [10] = assay: Test A pre-/postemergence herbicide test; type: in vivo, Setaria faberi
Summary of the method: as §1

lambsquarters = assay: Test B pre-/postemergence herbicide test; type: in vivo, Chenopodium album; conditions: for Lambsquarters plant response rating: postemergence, visual rating, scale 0 (no effect) to 100 (complete control)
Summary of the method: as §2

blackgrass = assay: Test B postemergence herbicide test; type: in vivo, Alopecurus myosuroides; conditions: postemergence, visual rating, scale 0 (no effect) to 100 (complete control)
Summary of the method: as §4

[11] = system: small flower umbrella sedge; assay: Test B flooded paddy test; type: in vivo, Cyperus difformis; conditions: 1000 g ai/ha, visual rating, scale 0 to 100 (0 no effect, 100 complete control), 13 to 15 days
Summary of the method: as §4

velvetleaf [12] = assay: Test A pre-/postemergence herbicide test; type: in vivo, Abutilon theophrasti
Summary of the method: as §1

morningglory [13] = assay: Test B pre-/postemergence herbicide test; type: in vivo, Ipomoea coccinea; conditions: for Morningglory plant response rating: postemergence, visual rating, scale 0 (no effect) to 100 (complete control)
Summary of the method: as §3

wheat = assay: Test B postemergence herbicide test; type: in vivo, Triticum aestivum; design: key to Wheat plant response rating: 0 = no effect, 100 = complete control; conditions: postemergence, visual rating, scale 0 (no effect) to 100 (complete control)
Summary of the method: as §4

rice [14] = assay: Test B pre-/postemergence herbicide test; type: in vivo, Oryza sativa; conditions: preemergence
Summary of the method: as §2

[15] = Postemergence, 500 g ai/ha, 0 to 100 scale, 0 no effect, 100 complete control
[16] = Postemergence, 2000 g ai/ha, 0 to 100 scale, 0 no effect, 100 complete control
[17] = Preemergence, 2000 g ai/ha, visual rating, 0 to 100 scale (0 no effect, 100 complete control)
[18] = preemergence, 500 g ai/ha, visual injury, 0 to 100 scale (0 no effect, 100 complete control)
[19] = 125 g ai/ha, 0 = no effect, 100 = complete control, preemergence
[20] = 500 g ai/ha, visual rating 0-100, 0 no effect, 100 complete control, preemergence

SMILES: CCc1nc(C(C)(C)C)sc1C(=O)Nc1cccc(C(=O)NCC(C)C)c1 [Compound 211]
- Morningglory plant response rating (morningglory [1]; [15]): 20
- Plant response rating, Morningglory (morningglory [1]; [16]): 15
- Morningglory plant response rating (morningglory [1]; [17]): 25
- Morningglory plant response rating (morningglory [1]; [18]): 10
- Surinam Grass plant response rating (0 to 100 scale) (Surinam grass; [19]): 0
- Plant response rating, Surinam Grass (Surinam grass; [20]): 30
- Surinam Grass plant response rating (Surinam grass; 125 g ai/ha): 10
- Surinam Grass plant response rating (Surinam grass; 500 g ai/ha): 10
- Pigweed plant response rating (redroot pigweed; [15]): 25
- Plant response rating, Pigweed (redroot pigweed; [16]): 25
- Pigweed plant response rating (redroot pigweed; [17]): 40
- Pigweed plant response rating (redroot pigweed; [18]): 30
- Cocklebur plant response rating (0 to 100 scale) (cocklebur; [19]): 0
- Plant response rating, Cocklebur (cocklebur; [20]): 0
- Cocklebur plant response rating (cocklebur; 125 g ai/ha): 30
- Cocklebur plant response rating (cocklebur; 500 g ai/ha): 60
- Oat, Wild plant response rating (wild oat; 125 g ai/ha): 10
- Oat, Wild plant response rating (wild oat; 500 g ai/ha): 10
- Barnyardgrass plant response rating (barnyardgrass [2]; [15]): 25
- Plant response rating, Barnyardgrass (barnyardgrass [2]; [16]): 55
- Barnyardgrass plant response rating (barnyardgrass [2]; [17]): 70
- Barnyardgrass plant response rating (barnyardgrass [2]; [18]): 55
- Barnyardgrass plant response rating (0 to 100 scale) (barnyardgrass [3]; [19]): 10
- Plant response rating, Barnyardgrass (barnyardgrass [3]; [20]): 50
- Barnyardgrass plant response rating (barnyardgrass [3]; 125 g ai/ha): 10
- Barnyardgrass plant response rating (barnyardgrass [3]; 500 g ai/ha): 10
- Corn plant response rating (0 to 100 scale) (corn; [19]): 0
- Plant response rating, Corn (corn; [20]): 10
- Corn plant response rating (corn; 125 g ai/ha): 10
- Corn plant response rating (corn; 500 g ai/ha): 10
- Velvetleaf plant response rating (0 to 100 scale) (velvetleaf [4]; [19]): 0
- Plant response rating, Velvetleaf (velvetleaf [4]; [20]): 10
- Velvetleaf plant response rating (velvetleaf [4]; 125 g ai/ha): 30
- Velvetleaf plant response rating (velvetleaf [4]; 500 g ai/ha): 30
- Ducksalad plant response rating (ducksalad): 80
- Foxtail, Giant plant response rating (0 to 100 scale) (giant foxtail [5]; [19]): 10
- Plant response rating, Foxtail, Giant (giant foxtail [5]; [20]): 50
- Foxtail, Giant plant response rating (giant foxtail [5]; 125 g ai/ha): 10
- Foxtail, Giant plant response rating (giant foxtail [5]; 500 g ai/ha): 10
- Pigweed plant response rating (0 to 100 scale) (pigweed; [19]): 0
- Plant response rating, Pigweed (pigweed; [20]): 30
- Pigweed plant response rating (pigweed; 125 g ai/ha): 10
- Pigweed plant response rating (pigweed; 500 g ai/ha): 30
- Rice plant response rating (rice [6]): 20
- Crabgrass, Large plant response rating (0 to 100 scale) (large crabgrass [7]; [19]): 10
- Plant response rating, Crabgrass, Large (large crabgrass [7]; [20]): 70
- Crabgrass, Large plant response rating (large crabgrass [7]; 125 g ai/ha): 10
- Crabgrass, Large plant response rating (large crabgrass [7]; 500 g ai/ha): 10
- Crabgrass, Large plant response rating (large crabgrass [8]; [15]): 20
- Plant response rating, Crabgrass, Large (large crabgrass [8]; [16]): 30
- Crabgrass, Large plant response rating (large crabgrass [8]; [17]): 85
- Crabgrass, Large plant response rating (large crabgrass [8]; [18]): 75
- Barnyardgrass plant response rating (barnyardgrass [9]): 20
- Foxtail, Giant plant response rating (giant foxtail [10]; [15]): 20
- Plant response rating, Foxtail, Giant (giant foxtail [10]; [16]): 30
- Foxtail, Giant plant response rating (giant foxtail [10]; [17]): 70
- Foxtail, Giant plant response rating (giant foxtail [10]; [18]): 45
- Lambsquarters plant response rating (0 to 100 scale) (lambsquarters; [19]): 10
- Plant response rating, Lambsquarters (lambsquarters; [20]): 80
- Lambsquarters plant response rating (lambsquarters; 125 g ai/ha): 60
- Lambsquarters plant response rating (lambsquarters; 500 g ai/ha): 70
- Blackgrass plant response rating (blackgrass; 125 g ai/ha): 10
- Blackgrass plant response rating (blackgrass; 500 g ai/ha): 10
- Sedge, Umbrella plant response rating [11]: 30
- Velvetleaf plant response rating (velvetleaf [12]; [15]): 15
- Plant response rating, Velvetleaf (velvetleaf [12]; [16]): 25
- Velvetleaf plant response rating (velvetleaf [12]; [17]): 65
- Velvetleaf plant response rating (velvetleaf [12]; [18]): 25
- Morningglory plant response rating (0 to 100 scale) (morningglory [13]; [19]): 0
- Plant response rating, Morningglory (morningglory [13]; [20]): 10
- Morningglory plant response rating (morningglory [13]; 125 g ai/ha): 10
- Morningglory plant response rating (morningglory [13]; 500 g ai/ha): 30
- Wheat plant response rating (wheat; 125 g ai/ha): 10
- Wheat plant response rating (wheat; 500 g ai/ha): 10
- Rice plant response rating (0 to 100 scale) (rice [14]; 125 g ai/ha, 0 = no effect, 100 = complete control): 0
- Plant response rating, Rice (rice [14]; 500 g ai/ha, visual rating 0-100, 0 no effect, 100 complete control): 10
